# Assay results: patent US20170058314A1, “NOVEL METHODOLOGY FOR IDENTIFYING ANTI-PERSISTER ACTIVITY AND ANTIMICROBIAL SUSCEPTIBILITY FOR BORRELIA BURGDORFERI AND OTHER BACTERIA” (priority 2014, published 2017)
# Key:
# [1] = system: round body form of B. burgdorferi; settings: 50 µM
# [2] = system: round body form of B. burgdorferi; assay: SYBR Green I/PI assay on amoxicillin-induced round body form; settings: for Ratios of green/red fluorescence, Primary screening / Ratios of green/red fluorescence, Rescreening (first column) / Ratios of green/red fluorescence, Rescreening (second column): round body form, 50 μM; for viability at 50 µM: Borreliella burgdorferi, 168 h, read-out: Residual viable cells (SYBR Green I/PI assay)
# [3] = system: B. burgdorferi (growing, strain B31); assay: MIC determination, standard microdilution method; format: cell-based, Borrelia burgdorferi; settings: for MIC: Borreliella burgdorferi, growing B. burgdorferi, read-out: MIC
# [4] = system: stationary phase B. burgdorferi persisters (strain B31); assay: SYBR Green I/PI viability assay (plate reader), FDA-approved drug library screen; settings: for Ratio of Green/Red fluorescence, Primary screening / Ratio of Green/Red fluorescence, Rescreening (first column) / Ratio of Green/Red fluorescence, Rescreening (second column): 7 days, stationary phase; for viability at 50 µM: Borreliella burgdorferi, 168 h, read-out: Residual viable cells (regression equation, SYBR Green I/PI assay)
# [5] = system: stationary phase B. burgdorferi persisters (strain B31); assay: epifluorescence microscope counting after SYBR Green I/PI staining, FDA drug screen; settings: for viability at 50 µM: Borreliella burgdorferi, 168 h, read-out: Residual viable cells (epifluorescence microscope counting)
# [6] = system: log phase E. coli culture; assay: E. coli control, persister frequency by standard plate colony count assay; format: cell-based, Escherichia coli; settings: three hour log phase E. coli, 50 μg/mL amoxicillin for 3 hours
# [7] = system: stationary phase B. burgdorferi persisters (strain B31); assay: NCI compound library screen, SYBR Green I/PI assay (plate reader); settings: for viability at 20 µM: read-out: Residual viable cells (%) 20 μM (SYBR Green I/PI assay), 20 μM, seven day old stationary phase, 7 days
# [8] = system: stationary phase B. burgdorferi persisters (strain B31); assay: NCI compound library rescreen, epifluorescence microscope counting; settings: Borreliella burgdorferi, 168 h; for viability at 20 µM: read-out: Residual viable cells (%) 20 μM (epifluorescence microscope counting)
# [9] = system: log phase E. coli culture; assay: E. coli control, persister frequency by microscope counting after SYBR Green I/PI staining; format: cell-based, Escherichia coli; settings: three hour log phase E. coli, 50 μg/mL amoxicillin for 3 hours
# [10] = system: log phase and stationary phase B. burgdorferi culture; assay: Antibiotic exposure assay, SYBR Green I/PI (drugs alone and combinations); settings: for viability at 10 µg/mL: Borreliella burgdorferi, 168 h, read-out: Live Cell % (residual viable B. burgdorferi), ten-day-old stationary phase culture enriched with micro-colonies, 10 μg/mL each drug, 7 days
# Procedure: (§1) To qualitatively determine the effect of antibiotics, 10 μL of each compound from the pre-diluted plate or pre-diluted stock was added to stationary phase B. burgdorferi culture in the 96-well plate. The final volume per well was adjusted to 100 μL at a concentration of 10 μg/mL for each antibiotic. Plates were sealed and placed in a 33° C. incubator for 7 days. The SYBR Green I/PI viability assay was used to assess the live and dead cells after antibiotic exposure as described (Feng, Wang, Shi, et al., 2014). Briefly, 10 μL of SYBR Green I (10,000×stock, Invitrogen) was mixed with 30 μL propidium iodide (PI, 20 mM) into 1.0 mL of sterile dH2O. Then, 10 μL of staining mixture was added to each well and mixed thoroughly. The plates were incubated at room temperature in the dark for 15 minutes followed by plate reading at excitation wavelength at 485 nm and the fluorescence intensity at 535 nm (green emission) and 635 nm (red emission) in microplate reader (HTS 7000 plus Bio Assay Reader, PerkinElmer Inc., USA). With least-square fitting analysis, the regression equation and regression curve of the relationship between percentage of live bacteria and green/red fluorescence ratios was obtained. The regression equation was used to calculate the percentage of live cells in each well of the 96-well plate.
# To qualitatively determine the effect of antibiotics, 10 μL of each compound (final concentration 50 μM) from the pre-diluted plate or pre-diluted stock was added to round body form or stationary phase B. burgdorferi culture in the 96-well plate. The final volume per well was adjusted to 100 μL. Plates were sealed and placed in a 33° C. incubator for 7 days. The SYBR Green I/PI viability assay was used to assess the live and dead cells after antibiotic exposure as described (Feng, Wang, Shi, et al., 2014). Briefly, 10 μL of SYBR Green I (10,000×stock, Invitrogen) was mixed with 30 μL propidium iodide (PI, 20 mM, Sigma-Aldrich) into 1.0 mL of sterile dH2O. Then, 10 μL staining mixture was added to each well and mixed thoroughly. The plates were incubated at room temperature in the dark for 15 minutes followed by plate reading at excitation wavelength at 485 nm and the fluorescence intensity at 535 nm (green emission) and 635 nm (red emission) in microplate reader (HTS 7000 plus Bio Assay Reader, PerkinElmer Inc., USA). With least-square fitting analysis, the regression equation and regression curve of the relationship between percentage of live and dead bacteria as shown in green/red fluorescence ratios was obtained. The regression equation was used to calculate the percentage of live cells in each well of the 96-well plate.
# Round body form and ten day old stationary phase (in brackets) B. burgdorferi culture was treated with 10 μg/mL drugs or their combinations for 7 days. Residual viable B. burgdorferi was calculated according to the regression equation and ratio of Green/Red fluorescence obtained by SYBR Green I/PI assay as described (Feng, Wang, Shi, et al., 2014). Direct microscopy counting was employed to rectify the results of the SYBR Green I/PI assay. […] Abbreviation: Dox, doxcycline; CefP, cefoperazone; DAP, daptomycin; CefM, cefmetazole; Scp, sulfachlorpyridazine; Art, artemisinin; Nft, nitrofurantoin.
# [11] = system: stationary phase B. burgdorferi; assay: Subculture test of drug-treated stationary phase B. burgdorferi; format: cell-based, Borrelia burgdorferi; settings: for G/R ratio immediately after treatment / G/R ratio after 7 day subculture / G/R ratio after 15 day subculture / Spirochetes after 7 day subculture (microscope counting) / Spirochetes after 15 day subculture (microscope counting): 10 μg/mL; for G/R ratio immediately after treatment: 7 days; for G/R ratio after 7 day subculture / G/R ratio after 15 day subculture / Spirochetes after 7 day subculture (microscope counting) / Spirochetes after 15 day subculture (microscope counting): 7 days treatment, then subculture; for viability at 10 µg/mL: Borreliella burgdorferi, 168 h, read-out: Residual viable cells (epifluorescence microscope counting)
# Procedure: Seven-day-old B. burgdorferi culture (1×10^7 spirochetes/mL) (500 μL) was treated with drugs or drug combinations in Eppendorf tubes. After incubation at 33° C. for 7 days without shaking, the cells were collected by centrifugation and rinsed with 1 mL fresh BSK-H medium followed by resuspension in 500 μL fresh BSK-H medium without antibiotics. Then 50 μL of cell suspension was transferred to 1 mL fresh BSK-H medium for subculture at 33° C. for 2 weeks. Cell proliferation was assessed using SYBR Green I/PI assay and bacterial counting chamber (Hausser Scientific Partnership) by microscopy as described above.
# [12] = system: B. burgdorferi log and stationary phase cultures; assay: epi-fluorescence microscope counting after antibiotic exposure (persister frequency, planktonic forms); format: cell-based, Borrelia burgdorferi
# Procedure: Specimens were examined on a Nikon Eclipse E800 microscope equipped with differential interference contrast (DIC) and epi-fluorescence illumination, and recorded with a Spot slider color camera. Cell proliferation assays were performed by direct counting using a bacterial counting chamber (Hausser Scientific Partnership) and DIC microscopy. SYBR Green I/PI assay was performed to assess the viability of B. burgdorferi. The ratio of live (green) and dead (red) B. burgdorferi was calculated by counting these cells using a bacterial counting chamber and epi-fluorescence microscopy. The three representative images of every sample were captured for quantitative analysis. Image Pro-Plus software was applied for measuring the biomass (fluorescence intensity) of different forms (spirochetes, round body, and microcolony) of B. burgdorferi as previously described (Shopov and Williams, 2000).
# as §1
# Therefore, the frequency of B. burgdorferi persisters in log phase and stationary phase cultures was assessed using the SYBR Green I/PI viability assay after exposure of the cultures to antimicrobials. E. coli culture was used as a control after exposure to antibiotics to validate the SYBR Green I/PI viability assay for persister frequency assessment.
# [13] = system: B. burgdorferi (growing, strain B31); settings: actively growing B. burgdorferi; Feng, Wang, Shi, et al., 2014; cited from earlier work
# [14] = system: round body form of B. burgdorferi; assay: Subculture test of drug-treated round body form
# Procedure: For induction of round body form of B. burgdorferi, B. burgdorferi spirochetes (1×10^5 spirochetes/mL) were cultured in BKS-H medium for 6 days without shaking. After the 6-day incubation, amoxicillin at a final concentration of 50 μg/mL was added to the culture for round body form induction. After 72 h induction at 33° C., the round body forms of B. burgdorferi were examined by the microscopy. The round body cells (100 μL) were transferred to 96-well tissue culture microplates for evaluation of the effects of antibiotic treatment.
# [15] = 50 μM, 7-day old stationary phase cells treated for 7 days
# [16] = read-out: Activity against persisters (residual viable cell percentage)
# [17] = read-out: Residual viable cells (%) 50 μM (epifluorescence microscope counting)
# [18] = read-out: Residual viable cells (epifluorescence microscope counting)
# [19] = 10 μg/mL drugs or combinations, 7 days
# [20] = 10 μg/mL, 7 days treatment, then subculture
Compound,Residual viable cells (SYBR Green I/PI assay) [1],"Ratios of green/red fluorescence, Primary screening ([2]; 7 days)","Ratios of green/red fluorescence, Rescreening (first column) ([2]; 7 days)","Ratios of green/red fluorescence, Rescreening (second column) ([2]; 7 days)","Ratio of Green/Red fluorescence, Primary screening ([4]; 50 μM)","Ratio of Green/Red fluorescence, Rescreening (first column) ([4]; 50 μM)","Ratio of Green/Red fluorescence, Rescreening (second column) ([4]; 50 μM)",MIC [3],viability at 50 µM [4],viability at 50 µM [5],"viability at 20 µM ([7]; Borreliella burgdorferi, 168 h)","viability at 50 µM [8, 16]",viability at 20 µM [8],"viability at 50 µM [8, 17]","viability at 50 µM [8, 18]",viability at 10 µg/mL [10],viability at 50 µM [2],G/R ratio immediately after treatment [11],G/R ratio after 7 day subculture [11],G/R ratio after 15 day subculture [11],further results
N[C@@H](C(=O)N[C@@H]1C(=O)N2C(C(=O)O)=C(Cl)CC[C@H]12)c1ccccc1 [Loracarbef],33%,6.35,6.25,6.24,–,–,–,–,–,–,–,–,–,–,–,–,–,–,–,–,–
CO[C@@H]1[C@@H](O[C@@H]2O[C@H](C)[C@@H](O[C@H]3C[C@@](C)(O)[C@@H](OC(=O)CC(C)C)[C@H](C)O3)[C@H](N(C)C)[C@H]2O)[C@@H](CC=O)C[C@@H](C)C(=O)/C=C/[C@@H]2O[C@@H]2C[C@@H](C)OC(=O)C[C@H]1OC(C)=O [Carbomycin],43%,–,–,–,6.37,6.81,6.32,–,–,–,–,–,–,–,–,–,–,–,–,–,"sensitivity of log phase / multiplying B. burgdorferi (words, FIG. 12) ([3]; MIC test): very sensitive; Residual viable cells (regression equation, SYBR Green I/PI assay) [4, 15]: 37%; Residual viable cells (epifluorescence microscope counting) [5, 15]: 41%"
CC1(C)S[C@@H]2[C@H](NC(=O)[C@H](N)c3ccc(O)cc3)C(=O)N2[C@H]1C(=O)O [Amoxicillin],–,6.53,6.59,6.52,7.98,7.86,7.82,≤ 0.25 µg/mL,76%,76%,77%,77%,77%,77%,77%,75%,46%,7.16,6.32,7.23,"E. coli control Persister frequency (standard plate colony count assay) [6]: 0.9%; E. coli control Persister frequency (standard plate colony count assay) ([6]; listed as amoxicillin): 0.9%; Residual viable cells (SYBR Green I/PI assay) ([7]; 50 μM, seven day old stationary phase culture, 7 days): 71%; E. coli control Persister frequency (epi-fluorescence microscope counting after SYBR Green I/PI staining) [9]: 4.4%; E. coli control Persister frequency (epi-fluorescence microscope counting after SYBR Green I/PI staining) ([9]; listed as amoxicillin): 4.4%; Spirochetes after 7 day subculture (microscope counting) [11]: 1 × 10^6; Spirochetes after 15 day subculture (microscope counting) [11]: 6 × 10^6; Spirochetes after 15 day subculture (microscope counting) ([11]; listed as amoxicillin): ~5×10^6; viability at 10 µg/mL [11]: 80%; persister frequency (percentage of live cells after antibiotic treatment, in brackets) ([12]; 3-day log phase culture): (9.6%); persister frequency (in brackets) ([12]; 7-day stationary phase culture): (25%); persister frequency (in brackets) ([12]; 10-day stationary phase culture): (~27%)"
CCCCCCCCCC(=O)N[C@@H](Cc1c[nH]c2ccccc12)C(=O)N[C@H](CC(N)=O)C(=O)N[C@@H](CC(=O)O)C(=O)N[C@@H]1C(=O)NCC(=O)N[C@@H](CCCN)C(=O)N[C@@H](CC(=O)O)C(=O)N[C@H](C)C(=O)N[C@@H](CC(=O)O)C(=O)NCC(=O)N[C@H](CO)C(=O)N[C@@H]([C@H](C)CC(=O)O)C(=O)N[C@@H](CC(=O)c2ccccc2N)C(=O)O[C@@H]1C [Daptomycin],–,5.90,6.09,5.93,6.10,6.20,6.09,12.5 to 25 µg/mL,28%,35%,32%,18%,25%,18%,18%,48%,19%,5.85,7.01,7.11,"viability at 50 µM ([7]; Borreliella burgdorferi, 168 h, read-out: Residual viable cells (SYBR Green I/PI assay), 50 μM, seven day old stationary phase culture, 7 days): 23%; Live cell %, ten day old stationary phase culture (in brackets) [10, 19]: 48%; Live Cell % (residual viable B. burgdorferi) ([10]; Borrelia burgdorferi, 7 days, 10 μg/mL): 52%; Live cell %, round body form [2, 19]: 17%; MIC (previous study) [13]: 12.5 to 25 µg/mL; Spirochetes number After 10 day subculture [14, 20]: 5 × 10^5; Spirochetes number After 20 day subculture [14, 20]: 5 × 10^6; viability at 10 µg/mL ([14]; Borreliella burgdorferi, 168 h, read-out: Residual viable cells): 18%; Spirochetes after 7 day subculture (microscope counting) [11]: 3.1 × 10^6; Spirochetes after 15 day subculture (microscope counting) [11]: 5 × 10^6; viability at 10 µg/mL [11]: 55%"
